From US10265329B2, “Altering steroid metabolism for treatment of steroid-dependent disease” (THE CLEVELAND CLINIC FOUNDATION, priority 2015, dated 2019)

How the values were obtained:
[1] = test system: androgen-responsive gene expression (PSA); experiment: Stimulation of androgen-responsive gene expression by Abi metabolites (qPCR); type: cell-based, human; conditions: LAPC4 and LNCaP
Experimental: Cells were starved with phenol red-free and serum free-medium for at least 48 h before treatment with the indicated drugs and/or androgens. RNA extraction and cDNA synthesis were performed with the GenElute Mammalian Total RNA miniprep kit (Sigma-Aldrich) and iScript cDNA Synthesis Kit (Bio-Rad, Hercules, Calif.) respectively. Quantitative PCR (qPCR) analysis was conducted in triplicate in an ABI 7500 Real-Time PCR machine (Applied Biosystems) using iTaq Fast SYBR Green Supermix with ROX (Bio-Rad) and primers for TMPRSS2, PSA and RPLPO, as described. Chang et al., Cell 154, 1074-1084 (2013). Accurate quantitation of each mRNA was achieved by normalizing the sample values to RPLPO and to vehicle-treated cells. 50 μg cell lysate was used for immunoblot with rabbit anti-SRD5A1 (Abnova) and mouse anti-β-actin (Sigma-Aldrich) antibodies.

[2] = biological target: T1, CYP17A1 (Homo sapiens, UniProt P05093); experiment: Conversion of [3H]-pregnenolone to DHEA in 293 cells expressing CYP17A1; type: cell-based; conditions: for CYP17A1 inhibition activity relative to Abi and D4A: 293 cells overexpressing CYP17A1, [3H]-pregnenolone to DHEA
T1 construct: expressed in transfected cells
T1 sequence (P05093 1-508): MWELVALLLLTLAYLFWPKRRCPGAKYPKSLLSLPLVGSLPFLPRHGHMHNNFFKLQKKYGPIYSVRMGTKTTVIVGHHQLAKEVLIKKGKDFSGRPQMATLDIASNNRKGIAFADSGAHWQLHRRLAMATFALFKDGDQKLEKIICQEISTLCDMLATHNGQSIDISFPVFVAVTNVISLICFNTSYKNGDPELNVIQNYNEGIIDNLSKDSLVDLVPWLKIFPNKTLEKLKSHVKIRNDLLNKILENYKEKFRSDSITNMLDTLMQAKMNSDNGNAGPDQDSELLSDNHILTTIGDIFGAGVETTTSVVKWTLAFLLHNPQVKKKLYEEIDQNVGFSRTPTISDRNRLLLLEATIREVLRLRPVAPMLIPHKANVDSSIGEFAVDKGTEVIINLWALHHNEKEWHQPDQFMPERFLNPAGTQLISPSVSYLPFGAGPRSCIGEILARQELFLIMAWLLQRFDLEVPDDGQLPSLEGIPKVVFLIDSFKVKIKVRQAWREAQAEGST
Source text: LNCaP and VCaP cells were purchased from the American Type Culture Collection (Manassas, Va.) and maintained in RPMI-1640 with 10% FBS. LAPC4 cells were kindly provided by Dr. Charles Sawyers (Memorial Sloan Kettering Cancer Center, New York, N.Y.) and grown in Iscove's Modified Dulbecco's Medium with 10% FBS. C4-2 cells were kindly provided by Dr. Leland Chung (Cedars-Sinai Medical Center, Los Angeles, Calif.) and maintained in RPMI-1640 with 10% FBS. All experiments done with LNCaP and VCaP were done in plates coated with poly-DL-ornithine (Sigma-Aldrich, St. Louis, Mo.). A 293 cell line stably expressing human CYP17A1 was generated by transfection with plasmid pcDNA3-CYP17 (a generous gift of Dr. Walter Miller, University of California, San Francisco) and selection with G418. Cell lines was authenticated by DDC Medical (Fairfield, Ohio) and determined to be […] mycoplasma free with primers.
Cell Line Metabolism: Cells were seeded and incubated in 12-well plates with 0.2 million cells/well for ˜24 h and then incubated with a mixture of radioactive ([^3H]-labeled) and non-radioactive androgens (final concentration, 100 nM; ˜1,000,000 cpm/well; PerkinElmer, Waltham, Mass.) at 37° C. Aliquots of medium were collected at the indicated times. Collected medium was treated with 1,000 units of β-glucuronidase (Helix pomatia; Sigma-Aldrich) at 65° C. for 2 h, extracted with 860 μL ethyl acetate:isooctane (1:1), and concentrated under nitrogen gas. Xenograft Metabolism: 10^7 LNCaP or VCaP cells were injected subcutaneously with Matrigel into surgically orchiectomized NSG mice that were implanted with 5 mg 90-day sustained-release DHEA pellets (Innovative Research of American, Sarasota, Fla.). Xenografts were harvested when they reached 1000 mm^3, minced, and cultured in DMEM with 10% FBS at 37° C. with mixture of radioactive ([^3H]-labeled) and non-radioactive androgens, or Abi, when they reached 1000 mm^3. Each xenograft was analyzed in triplicate in at least three independent experiments. Aliquots of medium were collected at the indicated times. […]
Dried samples were reconstituted in 50% methanol and injected into the HPLC. […] Alternatively, dried samples were applied to plastic-backed silica gel plates and separated by thin-layer chromatography (TLC) using a mobile phase of 3:1 chloroform:ethyl acetate, followed by exposure of the plates to a phosphorimager screen and quantitated with a Storm model 860 phosphorimager (Applied Biosystems, Foster City, Calif.). […]
Cell lines, drugs and constructs. […] Cell lines were authenticated by DDC Medical (Fairfield, Ohio) and determined to be mycoplasma free with primers. […]

[3] = test system: VCaP CRPC xenografts; experiment: VCaP CRPC xenograft growth under 5α-reduced Abi metabolites; type: in vivo; conditions: orchiectomized mice; i.p. daily up to 20 days; >30% growth
Experimental: Male NSG mice, 6 to 8 weeks of age were obtained from the Cleveland Clinic Biological Resources Unit facility. All mouse studies were conducted under a protocol approved by the Cleveland Clinic Institutional Animal Care and Use Committee. 10^7 VCaP cells were injected subcutaneously with matrigel. […] Control groups were administered 0.15 mL 5% benzyl alcohol and 95% safflower oil solution via intraperitoneal injection every day. Tumor volume was measured every other day, and time to increase in tumor volume by 30% was determined (2 sequential increases). Mice were sacrificed at treatment day 20. The significance of the difference between treatment groups was assessed by Kaplan-Meier survival analysis using a log-rank test in SigmaStat 3.5.

Row | Compound | induction of androgen-responsive gene expression [1] | CYP17A1 inhibition activity relative to Abi and D4A [2] | progression-free survival compared to control xenografts [3] | % conversion to DHEA ([2]; 1 nM drug, 3 h incubation, vehicle 70.1%) [%]
1 | C[C@]12CC[C@@H](O)C[C@@H]1CC[C@@H]1[C@@H]2CC[C@]2(C)C(c3cccnc3)=CC[C@@H]12 [Compound 3α-OH-5α-Abi, 17-(3-pyridyl)-5α-androsta-16-ene-3α-ol] | A lower level of induction | attenuated | no detectable effect | 
2 | C[C@]12CCC(=O)C[C@@H]1CC[C@@H]1[C@@H]2CC[C@]2(C)C(c3cccnc3)=CC[C@@H]12 [Compound 5α-Abi, 17-(3-pyridyl)-5α-androsta-16-ene-3-one] | results in expression of androgen-responsive genes | attenuated | significantly shortened progression-free survival | 
3 | C[C@]12CCC(=O)C=C1CC[C@@H]1[C@@H]2CC[C@]2(C)C(c3cccnc3)=CC[C@@H]12 [Compound D4A, 17-(3-Pyridyl)androsta-4,16-dien-3-one] |  |  |  | 4.2
